Assay results taken from US12077503B2, “Substituted cyclic amides and their use as herbicides” (FMC CORPORATION, priority 2015, dated 2024).

What was measured:
Type in all cases: in vivo
[1] = tested on: sedge, umbrella (small-flower umbrella sedge, Cyperus difformis); assay: Test B flooded paddy test; conditions: Cyperus difformis, Flood, 250 g ai/ha; scale of 0 to 100 where 0 is no effect and 100 is complete control; read-out: Sedge, Umbrella plant response rating
In short: (§1)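 Flooding to 3 cm over soil accompanied treatment, which consisted of adding compound to the standing water around 2-leaf plants; depth was then maintained. Visual assessment versus controls followed at 13 to 15 d (scale 0–100, 0 meaning no effect).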

[2] = tested on: rice (Oryra sativa); assay: Test B flooded paddy test; conditions: Oryza sativa, Flood, 250 g ai/ha; scale of 0 to 100 where 0 is no effect and 100 is complete control; read-out: Rice plant response rating
In short: as §1

[3] = tested on: barnyardgrass (Echinochloa crus-galli); assay: Test B flooded paddy test; conditions: Echinochloa crus-galli, Flood, 250 g ai/ha; scale of 0 to 100 where 0 is no effect and 100 is complete control; read-out: Barnyardgrass plant response rating
In short: as §1

[4] = tested on: ducksalad (Heteranthera limosa); assay: Test B flooded paddy test; conditions: Heteranthera limosa, Flood, 250 g ai/ha; scale of 0 to 100 where 0 is no effect and 100 is complete control; read-out: Ducksalad plant response rating
In short: as §1

[5] = tested on: corn (Zea mays); assay: Test A postemergence; conditions: Zea mays, post-emergence, 240 h, 125 g ai/ha, Postemergence; visual injury after approximately 10 d; 0 to 100 scale where 0 is no effect and 100 is complete control
In short: (§2)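 Seeded soil received test chemicals as a preemergence directed spray, and seedlings at one to two leaves, 2–10 cm tall, received them postemergence, in a non-phytotoxic, surfactant-containing solvent mixture. Pots were held in a greenhouse for approximately 10 d, then rated for injury from 0, no effect, to 100, complete control.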

[6] = tested on: ragweed (common ragweed, Ambrosia elatior); assay: Test A postemergence; conditions: Ambrosia artemisiifolia, post-emergence, 240 h, 125 g ai/ha, Postemergence; visual injury after approximately 10 d; 0 to 100 scale where 0 is no effect and 100 is complete control; read-out: Plant response rating, Ragweed
In short: as §2

[7] = tested on: Galium (catchweed bedstraw, Galium aparine); assay: Test A postemergence; conditions: Galium, post-emergence, 240 h, 125 g ai/ha, Postemergence; visual injury after approximately 10 d; 0 to 100 scale where 0 is no effect and 100 is complete control; read-out: Plant response rating, Galium
In short: as §2

[8] = tested on: Kochia (Kochia scoparia); assay: Test A postemergence; conditions: Bassia scoparia, post-emergence, 240 h, 125 g ai/ha, Postemergence; visual injury after approximately 10 d; 0 to 100 scale where 0 is no effect and 100 is complete control; read-out: Plant response rating, Kochia
In short: as §2

[9] = tested on: wheat (Triticum aestivum); assay: Test A postemergence; conditions: Triticum aestivum, post-emergence, 240 h, 125 g ai/ha, Postemergence; visual injury after approximately 10 d; 0 to 100 scale where 0 is no effect and 100 is complete control; read-out: Plant response rating, Wheat
In short: as §2

[10] = tested on: pigweed (Amaranthus retroflexus); assay: Test A postemergence; conditions: Amaranthus retroflexus, post-emergence, 240 h, 125 g ai/ha, Postemergence; visual injury after approximately 10 d; 0 to 100 scale where 0 is no effect and 100 is complete control; read-out: Plant response rating, Pigweed
In short: as §2

[11] = tested on: ryegrass, Italian (Italian ryegrass, Lolium multiflorum); assay: Test A postemergence; conditions: Lolium multiflorum, post-emergence, 240 h, 125 g ai/ha, Postemergence; visual injury after approximately 10 d; 0 to 100 scale where 0 is no effect and 100 is complete control; read-out: Plant response rating, Ryegrass, Italian
In short: as §2

[12] = tested on: barnyardgrass (Echinochloa crus-galli); assay: Test A postemergence; conditions: Echinochloa crus-galli, post-emergence, 240 h, 125 g ai/ha, Postemergence; visual injury after approximately 10 d; 0 to 100 scale where 0 is no effect and 100 is complete control; read-out: Plant response rating, Barnyardgrass
In short: as §2

[13] = tested on: blackgrass (Alopecurus myosuroides); assay: Test A postemergence; conditions: Alopecurus myosuroides, post-emergence, 240 h, 125 g ai/ha, Postemergence; visual injury after approximately 10 d; 0 to 100 scale where 0 is no effect and 100 is complete control; read-out: Plant response rating, Blackgrass
In short: as §2

[14] = tested on: giant foxtail (Setaria faberii); assay: Test A postemergence; conditions: Setaria faberi, post-emergence, 240 h, 125 g ai/ha, Postemergence; visual injury after approximately 10 d; 0 to 100 scale where 0 is no effect and 100 is complete control; read-out: Plant response rating, Foxtail, Giant
In short: as §2

[15] = tested on: ragweed (common ragweed, Ambrosia elatior); assay: Test A preemergence; conditions: Ambrosia artemisiifolia, pre-emergence, 240 h
In short: as §2

[16] = tested on: Kochia (Kochia scoparia); assay: Test A preemergence; conditions: Bassia scoparia, pre-emergence, 240 h
In short: as §2

[17] = tested on: pigweed (Amaranthus retroflexus); assay: Test A preemergence; conditions: Amaranthus retroflexus, pre-emergence, 240 h
[18] = tested on: ryegrass, Italian (Italian ryegrass, Lolium multiflorum); assay: Test A preemergence; conditions: Lolium multiflorum, pre-emergence, 240 h
In short: as §2

[19] = tested on: barnyardgrass (Echinochloa crus-galli); assay: Test A preemergence; conditions: Echinochloa crus-galli, pre-emergence, 240 h
In short: as §2

[20] = tested on: giant foxtail (Setaria faberii); assay: Test A preemergence; conditions: Setaria faberi, pre-emergence, 240 h
In short: as §2

CN1C[C@H](c2ccc(C(F)(F)F)cc2)[C@@H](C(=O)Nc2ccccc2Br)C1=O [Compound 943]
pest or weed control at 250 g/ha [1]: 0% | pest or weed control at 250 g/ha [2]: 0% | pest or weed control at 250 g/ha [3]: 0% | pest or weed control at 250 g/ha [4]: 50% | Corn plant response rating (crop injury, 0 = no effect, 100 = complete kill) at 125 g/ha [5]: 20% | pest or weed control at 125 g/ha [6]: 0% | pest or weed control at 125 g/ha [7]: 70% | pest or weed control at 125 g/ha [8]: 30% | plant injury at 125 g/ha [9]: 0% | pest or weed control at 125 g/ha [10]: 40% | pest or weed control at 125 g/ha [11]: 0% | pest or weed control at 125 g/ha [12]: 70% | pest or weed control at 125 g/ha [13]: 40% | pest or weed control at 125 g/ha [14]: 90% | pest or weed control at 125 g/ha ([15]; 125 g ai/ha, Preemergence, visual injury rating after approximately 10 d, read-out: Ragweed plant response rating (0 to 100 scale, 0 is no effect, 100 is complete control)): 0% | pest or weed control at 500 g/ha ([15]; 500 g ai/ha, preemergence, visual injury rating about 10 d after treatment, 0 to 100 scale (0 no effect, 100 complete control), read-out: Ragweed plant response rating): 30% | pest or weed control at 125 g/ha ([16]; 125 g ai/ha, Preemergence, visual injury rating after approximately 10 d, read-out: Kochia plant response rating (0 to 100 scale, 0 is no effect, 100 is complete control)): 70% | pest or weed control at 500 g/ha ([16]; 500 g ai/ha, preemergence, visual injury rating about 10 d after treatment, 0 to 100 scale (0 no effect, 100 complete control), read-out: Kochia plant response rating): 80% | pest or weed control at 125 g/ha ([17]; 125 g ai/ha, Preemergence, visual injury rating after approximately 10 d, read-out: Pigweed plant response rating (0 to 100 scale, 0 is no effect, 100 is complete control)): 40% | pest or weed control at 500 g/ha ([17]; 500 g ai/ha, preemergence, visual injury rating about 10 d after treatment, 0 to 100 scale (0 no effect, 100 complete control), read-out: Pigweed plant response rating): 50% | pest or weed control at 125 g/ha ([18]; 125 g ai/ha, Preemergence, visual injury rating after approximately 10 d, read-out: Ryegrass, Italian plant response rating (0 to 100 scale, 0 is no effect, 100 is complete control)): 0% | pest or weed control at 500 g/ha ([18]; 500 g ai/ha, preemergence, visual injury rating about 10 d after treatment, 0 to 100 scale (0 no effect, 100 complete control), read-out: Ryegrass, Italian plant response rating): 50% | pest or weed control at 125 g/ha ([19]; 125 g ai/ha, Preemergence, visual injury rating after approximately 10 d, read-out: Barnyardgrass plant response rating (0 to 100 scale, 0 is no effect, 100 is complete control)): 90% | pest or weed control at 500 g/ha ([19]; 500 g ai/ha, preemergence, visual injury rating about 10 d after treatment, 0 to 100 scale (0 no effect, 100 complete control), read-out: Barnyardgrass plant response rating): 90% | pest or weed control at 125 g/ha ([20]; 125 g ai/ha, Preemergence, visual injury rating after approximately 10 d, read-out: Foxtail, Giant plant response rating (0 to 100 scale, 0 is no effect, 100 is complete control)): 90% | pest or weed control at 500 g/ha ([20]; 500 g ai/ha, preemergence, visual injury rating about 10 d after treatment, 0 to 100 scale (0 no effect, 100 complete control), read-out: Foxtail, Giant plant response rating): 90%
